According to patent US9920010B2, “CXCR7 receptor modulators” (IDORSIA PHARMACEUTICALS LTD, priority 2013, dated 2018):

Each molecule was assayed against T1, CXCR7 (Homo sapiens, UniProt P25106) (assay: PathHunter CHO-K1 CXCR7 b-arrestin recruitment assay (CXCR7 agonistic activity)). Settings: PathHunter CHO-K1 CXCR7 b-arrestin cell line.
T1 construct: host or cells: CHO-K1 (PathHunter CHO-K1 CXCR7 b-arrestin cell line, stably transfected)
Type: cell-based
Method in brief: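 Stable CHO-K1 line with C-terminally ProLink-tagged CXCR7 and β-arrestin 2–EA fusion; β-arrestin recruitment restores β-gal activity, read by chemiluminescence after 1 h RT detection. Cells seeded 24 h, starved in OPTIMEM 3–4 h, exposed to compounds 90 min at 37 °C in HBSS/HEPES/BSA. Geometric-mean EC50 from repeated measurements.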

T1 sequence (P25106 whole entry): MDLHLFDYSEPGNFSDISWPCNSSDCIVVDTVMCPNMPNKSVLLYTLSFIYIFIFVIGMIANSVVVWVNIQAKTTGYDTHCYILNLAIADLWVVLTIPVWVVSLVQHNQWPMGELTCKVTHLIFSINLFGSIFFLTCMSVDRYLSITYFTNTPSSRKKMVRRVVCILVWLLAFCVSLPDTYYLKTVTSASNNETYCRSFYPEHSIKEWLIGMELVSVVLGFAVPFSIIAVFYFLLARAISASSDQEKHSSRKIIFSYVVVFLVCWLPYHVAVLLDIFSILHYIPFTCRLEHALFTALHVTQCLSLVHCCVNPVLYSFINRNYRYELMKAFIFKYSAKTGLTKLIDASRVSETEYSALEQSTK
T1 sequence (P32121 whole entry partner): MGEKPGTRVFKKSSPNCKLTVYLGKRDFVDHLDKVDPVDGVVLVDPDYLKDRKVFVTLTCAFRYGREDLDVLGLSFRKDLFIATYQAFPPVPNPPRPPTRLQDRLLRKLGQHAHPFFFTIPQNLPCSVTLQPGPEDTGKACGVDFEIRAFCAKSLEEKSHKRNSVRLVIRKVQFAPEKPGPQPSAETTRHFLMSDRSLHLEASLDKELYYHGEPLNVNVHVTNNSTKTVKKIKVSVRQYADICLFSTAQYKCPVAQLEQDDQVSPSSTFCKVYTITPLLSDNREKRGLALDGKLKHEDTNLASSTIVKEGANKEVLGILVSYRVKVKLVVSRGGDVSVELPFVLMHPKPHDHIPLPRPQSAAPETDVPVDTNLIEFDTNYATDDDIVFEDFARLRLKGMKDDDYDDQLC

SMILES	EC50 [nM]
COCCN1CCc2c(CCC(=O)N(Cc3ccccc3C(F)(F)F)CC(C)(C)O)cccc2C1 [Example 341, N-(2-Hydroxy-2-methyl-propyl)-3-[2-(2-methoxy-ethyl)-1,2,3,4-tetrahydro-isoquinolin-5-yl]-N-(2-trifluoromethyl-benzyl)-propionamide]	397
COCCN1CCc2c(CCC(=O)N(CCN(C)CCF)Cc3ccccc3C(F)(F)F)cccc2C1 [Example 342, N-{2-[(2-Fluoro-ethyl)-methyl-amino]-ethyl}-3-[2-(2-methoxy-ethyl)-1,2,3,4-tetrahydro-isoquinolin-5-yl]-N-(2-trifluoromethyl-benzyl)-propionamide]	110
COCCN1CCc2c(CCC(=O)N(Cc3ccccc3C(F)(F)F)CC3(C)COC3)cccc2C1 [Example 343, 3-[2-(2-Methoxy-ethyl)-1,2,3,4-tetrahydro-isoquinolin-5-yl]-N-(3-methyl-oxetan-3-ylmethyl)-N-(2-trifluoromethyl-benzyl)-propionamide]	415
COCCN1CCc2c(CCC(=O)N(CCC(C)(C)O)Cc3ccccc3C(F)(F)F)cccc2C1 [Example 344, N-(3-Hydroxy-3-methyl-butyl)-3-[2-(2-methoxy-ethyl)-1,2,3,4-tetrahydro-isoquinolin-5-yl]-N-(2-trifluoromethyl-benzyl)-propionamide]	438
COCCN1CCc2c(CCC(=O)N(CCN3CCC(F)(F)CC3)Cc3ncccc3Cl)cccc2C1 [Example 345, N-(3-Chloro-pyridin-2-ylmethyl)-N-[2-(4,4-difluoro-piperidin-1-yl)-ethyl]-3-[2-(2-methoxy-ethyl)-1,2,3,4-tetrahydro-isoquinolin-5-yl]-propionamide]	400
COCCN1CCc2c(CCC(=O)N(CCN(C)C)Cc3ncccc3Cl)cccc2C1 [Example 346, N-(3-Chloro-pyridin-2-ylmethyl)-N-(2-dimethylamino-ethyl)-3-[2-(2-methoxy-ethyl)-1,2,3,4-tetrahydro-isoquinolin-5-yl]-propionamide]	73
COCCN1CCc2c(CCC(=O)N(Cc3ncccc3Cl)CC(C)(C)O)cccc2C1 [Example 347, N-(3-Chloro-pyridin-2-ylmethyl)-N-(2-hydroxy-2-methyl-propyl)-3-[2-(2-methoxy-ethyl)-1,2,3,4-tetrahydro-isoquinolin-5-yl]-propionamide]	445
C=CCN(C)CCN(Cc1ccccc1C(F)(F)F)C(=O)CCc1cccc2c1CCN(CC=C)C2 [Example 348, N-[2-(Allyl-methyl-amino)-ethyl]-3-(2-allyl-1,2,3,4-tetrahydro-isoquinolin-5-yl)-N-(2-trifluoromethyl-benzyl)-propionamide]	13
C=CCN1CCc2c(CCC(=O)N(CCN(C)C)Cc3ccccc3C(F)(F)F)cccc2C1 [Example 349, 3-(2-Allyl-1,2,3,4-tetrahydro-isoquinolin-5-yl)-N-(2-dimethylamino-ethyl)-N-(2-trifluoromethyl-benzyl)-propionamide]	12
CN(C)CCN(Cc1ccccc1C(F)(F)F)C(=O)CNc1cccc2c1CCN(C1CCC1)C2 [Example 352, 2-(2-Cyclobutyl-1,2,3,4-tetrahydro-isoquinolin-5-ylamino)-N-(2-dimethylamino-ethyl)-N-(2-trifluoromethyl-benzyl)-acetamide]	4
CN(C)CCN(Cc1ccccc1C(F)(F)F)C(=O)CNc1cccc2c1CCN(C1COC1)C2 [Example 353, N-(2-Dimethylamino-ethyl)-2-(2-oxetan-3-yl-1,2,3,4-tetrahydro-isoquinolin-5-ylamino)-N-(2-trifluoromethyl-benzyl)-acetamide]	85
CC(C1CC1)N1CCc2c(cccc2NCC(=O)N(CCN(C)C)Cc2ccccc2C(F)(F)F)C1 (centres unmarked) [Example 357, 2-[2-(1-Cyclopropyl-ethyl)-1,2,3,4-tetrahydro-isoquinolin-5-ylamino]-N-(2-dimethylamino-ethyl)-N-(2-trifluoromethyl-benzyl)-acetamide]	4
CN(C)CCN(Cc1ccccc1C(F)(F)F)C(=O)CNc1cccc2c1CCN(CC1(C)COC1)C2 [Example 358, N-(2-Dimethylamino-ethyl)-2-[2-(3-methyl-oxetan-3-ylmethyl)-1,2,3,4-tetrahydro-isoquinolin-5-ylamino]-N-(2-trifluoromethyl-benzyl)-acetamide]	26
COCCN1CCc2c(cccc2NCC(=O)N(CCN(C)C)Cc2ccccc2C(F)(F)F)C1 [Example 359, N-(2-(dimethylamino)ethyl)-2-((2-(2-methoxyethyl)-1,2,3,4-tetrahydroisoquinolin-5-yl)amino)-N-(2-(trifluoromethyl)benzyl)acetamide]	9
COC(=O)CN1CCc2c(cccc2NCC(=O)N(CCN(C)C)Cc2ccccc2C(F)(F)F)C1 [Example 360, [5-({[(2-Dimethylamino-ethyl)-(2-trifluoromethyl-benzyl)-carbamoyl]-methyl}-amino)-3,4-dihydro-1H-isoquinolin-2-yl]-acetic acid methyl ester]	30
CN(C)CCN(Cc1ccccc1C(F)(F)F)C(=O)CNc1cccc2c1CCN(CC1CCC1)C2 [Example 361, 2-(2-Cyclobutylmethyl-1,2,3,4-tetrahydro-isoquinolin-5-ylamino)-N-(2-dimethylamino-ethyl)-N-(2-trifluoromethyl-benzyl)-acetamide]	6
CN(C)CCN(Cc1ccccc1C(F)(F)F)C(=O)CNc1cccc2c1CCN(C(=O)C(C)(F)F)C2 [Example 362, 2-[2-(2,2-Difluoro-propionyl)-1,2,3,4-tetrahydro-isoquinolin-5-ylamino]-N-(2-dimethylamino-ethyl)-N-(2-trifluoromethyl-benzyl)-acetamide]	21
CN(C)CCN(Cc1ccccc1C(F)(F)F)C(=O)CNc1cccc2c1CCN(CC#N)C2 [Example 364, 2-(2-Cyanomethyl-1,2,3,4-tetrahydro-isoquinolin-5-ylamino)-N-(2-dimethylamino-ethyl)-N-(2-trifluoromethyl-benzyl)-acetamide]	44
CN(C)CCN(Cc1ncccc1C(F)(F)F)C(=O)CNc1cccc2c1CCN(C1CCC1)C2 [Example 366, 2-(2-Cyclobutyl-1,2,3,4-tetrahydro-isoquinolin-5-ylamino)-N-(2-dimethylamino-ethyl)-N-(3-trifluoromethyl-pyridin-2-ylmethyl)-acetamide]	2
CN(C)CCN(Cc1ncccc1C(F)(F)F)C(=O)CNc1cccc2c1CCN(C1COC1)C2 [Example 367, N-(2-Dimethylamino-ethyl)-2-(2-oxetan-3-yl-1,2,3,4-tetrahydro-isoquinolin-5-ylamino)-N-(3-trifluoromethyl-pyridin-2-ylmethyl)-acetamide]	115
CN(C)CCN(Cc1ncccc1C(F)(F)F)C(=O)CNc1cccc2c1CCN(CC1CCC1)C2 [Example 368, 2-(2-Cyclobutylmethyl-1,2,3,4-tetrahydro-isoquinolin-5-ylamino)-N-(2-dimethylamino-ethyl)-N-(3-trifluoromethyl-pyridin-2-ylmethyl)-acetamide]	3
CCOC(=O)CN1CCc2c(cccc2NCC(=O)N(CCN(C)C)Cc2ncccc2C(F)(F)F)C1 [Example 369, [5-({[(2-Dimethylamino-ethyl)-(3-trifluoromethyl-pyridin-2-ylmethyl)-carbamoyl]-methyl}-amino)-3,4-dihydro-1H-isoquinolin-2-yl]-acetic acid ethyl ester]	92
COC(=O)CN1CCc2c(cccc2NCC(=O)N(CCN(C)C)Cc2ncccc2C(F)(F)F)C1 [Example 370, [5-({[(2-Dimethylamino-ethyl)-(3-trifluoromethyl-pyridin-2-ylmethyl)-carbamoyl]-methyl}-amino)-3,4-dihydro-1H-isoquinolin-2-yl]-acetic acid methyl ester]	40
COCCN1CCc2c(cccc2NCC(=O)N(CCN(C)C)Cc2ncccc2C(F)(F)F)C1 [Example 371, N-(2-Dimethylamino-ethyl)-2-[2-(2-methoxy-ethyl)-1,2,3,4-tetrahydro-isoquinolin-5-ylamino]-N-(3-trifluoromethyl-pyridin-2-ylmethyl)-acetamide]	16
CN(C)CCN(Cc1ccccc1C(F)(F)F)C(=O)CNc1cccc2c1CCN(c1ccccc1)C2 [Example 373, N-(2-Dimethylamino-ethyl)-2-(2-phenyl-1,2,3,4-tetrahydro-isoquinolin-5-ylamino)-N-(2-trifluoromethyl-benzyl)-acetamide]	67
CN(C)CCN(Cc1ccccc1C(F)(F)F)C(=O)CNc1cccc2c1CCN(c1ccccn1)C2 [Example 374, N-(2-Dimethylamino-ethyl)-2-(2-pyridin-2-yl-1,2,3,4-tetrahydro-isoquinolin-5-ylamino)-N-(2-trifluoromethyl-benzyl)-acetamide]	5
CN(C)CCN(Cc1ccccc1C(F)(F)F)C(=O)CNc1cccc2c1CCN(c1ncccn1)C2 [Example 375, N-(2-Dimethylamino-ethyl)-2-(2-pyrimidin-2-yl-1,2,3,4-tetrahydro-isoquinolin-5-ylamino)-N-(2-trifluoromethyl-benzyl)-acetamide]	6
CN(C)CCN(Cc1ccccc1C(F)(F)F)C(=O)CNc1cccc2c1CCN(c1nc(C(F)(F)F)cs1)C2 [Example 376, N-(2-Dimethylamino-ethyl)-N-(2-trifluoromethyl-benzyl)-2-[2-(4-trifluoromethyl-thiazol-2-yl)-1,2,3,4-tetrahydro-isoquinolin-5-ylamino]-acetamide]	27
CNCCN(Cc1ccccc1C(F)(F)F)C(=O)CNc1cccc2c1CCN(C(=O)C1CC1)C2 [Example 385, 2-(2-Cyclopropanecarbonyl-1,2,3,4-tetrahydro-isoquinolin-5-ylamino)-N-(2-methylamino-ethyl)-N-(2-trifluoromethyl-benzyl)-acetamide]	7
